Several values for one entry are separate records, joined by “and”; a condition that tells them apart may be missing. Equal entries are not always repeated.
Experiments:
[1] = Wettability: contact angle measurement with water on pressed powder; format: physicochemical; conditions: potassium salt; for Contact angle: water, in ° (unit assumed)
Protocol: Contact angel instrument: EasyDrop DSA15E (Krüss, Hamburg, Germany)
Syringe: NE44, diameter of needle 0.5 mm (Krüss, Hamburg, Germany)
The powder was pressed (approx 50 mg powder, 3 tons, 2 min) in tablets and analyzed by contact angle measurement. The angel between the solid and the liquid is measured after 0 and up to 60 seconds using water.
All determinations used the above method and the limit for the standards measurements are well within the given limits.

[2] = Pharmacokinetic Study 1: FMI tablets fasted/fed versus reference IR capsule, crossover, healthy adult volunteers; format: in vivo, human; conditions: high fat meal versus fasted, FMI tablets
Protocol: This was an open label, randomized, four-period, incomplete crossover, single center study in healthy adult volunteers. There were 4 treatments in the study: 3 doses of the FMI (given fasting or fed following a high-fat breakfast) and one reference IR capsule (given fed after a typical breakfast). The term “FMI” refers to the dosage form of Example 7 (30 mg FMI) or Example 8 (75 mg FMI).
Each subject was randomized to 1 of 18 treatment sequences, each with 4 treatment periods (Table 27). The first treatment period consisted of 1 of the 3 doses of FMI given fed, and treatment periods 2 to 4 consisted of 1 dose of IR capsule (fed) and 2 of the 3 doses of the FMI given fasted. […] Each subject therefore had 2 fasting treatments with the FMI formulation, 1 fed treatment with the FMI formulation and a reference treatment (IR capsule). Seventy two subjects enrolled and were dosed in the study with 70 completers.
The study consisted of a 28-day screening period, four baseline periods (one before each treatment period), four treatment periods with a wash out period of a minimum of 5 days, followed by a study completion evaluation approximately 72 hours after the last drug administration. Subjects who met the eligibility criteria at screening were admitted to baseline evaluations. All baseline safety evaluation results were available prior to dosing.
For fasted administration, elinogrel was administered in the morning, following an overnight fast of at least 10 hours. Subjects continued to fast until 4 hours post-dose. For fed administration of FMI tablets, elinogrel was administered in the morning, within 30 minutes of a high fat breakfast (approximately 1000 calories). Subjects continued to fast until 4 hours post-dose. For fed administration of the reference (IR capsule), it was administered in the morning, within 30 minutes of a typical breakfast (approximately 500 calories). Subjects continued to fast until 4 hours post-dose.
Subjects were admitted to the study site approximately 12 hours prior to dosing in each period for baseline evaluations. Following a single dose of elinogrel, PK assessments were taken up to 48 hours post dose and safety assessments were made for up to 72 hours.
Subjects were domiciled for 24 hours post dosing for PK sample collection, at which time they were discharged from the study site. Subjects returned on the following 2 mornings for 48 hour PK and 72 hour safety samples. Following the 72 hour safety assessments of treatment period 4 (or in the case of subject discontinuation) subjects underwent study completion evaluations and were discharged from the study. […].
This was a three-period, four-treatment crossover study design with an add-on food effect period (Period 1).
Treatment 1 (T1)=elinogrel 30 mg FMI dose fasting
Treatment 2 (T2)=elinogrel 75 mg FMI dose fasting
Treatment 3 (T3)=elinogrel 150 mg FMI dose fasting
Reference (R)=elinogrel 150 mg IR capsule dose fed (typical breakfast); Example 6 (Reference)
Fed treatment 1 (F1)=elinogrel 30 mg FMI dose fed (high fat breakfast)
Fed treatment 2 (F2)=elinogrel 75 mg FMI dose fed (high fat breakfast)
Fed treatment 3 (F3)=elinogrel 150 mg FMI dose fed (high fat breakfast)
Subjects will received the following treatments in a randomized order: • Treatment (T1, F1) with IR (IR=immediate release) tablet of Example 7 containing pH-modifying alkalizing agent, 30 mg in fasted and fed state. • Treatment (T2, F2) with IR (IR=immediate release) tablet of Example 8 containing pH-modifying alkalizing agent, 75 mg in fasted and fed state • Treatment (R) with 2×IR (IR=immediate release) capsule of Example 6 (Reference): 2×75 mg (150 mg) in fed state. • Treatment (T3, F3) with 2×IR (IR=immediate release) tablet of Example 8 containing pH-modifying alkalizing agent, 2×75 mg (150 mg) in fasted and fed state.
To evaluate the food effect, the geometric mean ratio for PK parameters of the fed versus fasted for each dose level and its 90% CI was estimated as shown in Table 29 below.

[3] = Relative thermodynamic stability: cross-seeding, suspensions equilibrated, solid analysed by X-ray powder diffraction; format: physicochemical
Protocol: The relative thermodynamic stability of the anhydrous form poly-D in comparison with the known Forms A and B of the compound of formula (I) was assessed by cross-seeding experiments, where mixtures of the anhydrous form poly-D and Form A and mixtures of the anhydrous form poly-D and Form B were separately suspended in water, an organic solvent or mixtures of water and organic solvents. The suspension was then equilibrated at various temperatures for several days. The solid parts were then isolated by filtration and analysed by X-ray powder diffraction.

[4] = Comparison of pharmacokinetic effects (AUC, bioavailability) in human studies for polymorphic form B, A and D; format: in vivo; conditions: 150 mg dose, polymorphs of the potassium salt, listed as polymorph D, potassium salt
Protocol: Comparison of pharmacokinetic effects in human studies for polymorphic form B, A and D of the potassium salt of elinogrel.
Therefore the polymorphic form does have a strong impact on the bioavailability of the drug.
The bioavailability is measured in a human study according to FDA guidelines for conducting bioavailability studies. The area under the curve (AUC) of elinogrel potassium salt polymorph.

[5] = Saturation solubility, shake-flask with UV quantification; format: physicochemical; conditions: listed as The compound of formula (I), form poly-D, potassium salt
Protocol: The FaSSIF and FeSSIF solutions were prepared using Phares SIF powder according to the formulation instructions and the SGF solution was prepared using the guidelines provided. […] The pH and temperature of the supernatant were measured on a SiriusT3 instrument.

CNc1cc2[nH]c(=O)n(-c3ccc(NC(=O)[N-]S(=O)(=O)c4ccc(Cl)s4)cc3)c(=O)c2cc1F.[K+] [Form poly-D]
surface hydrophobilicity from contact angle ([1]; critical angle around 50° (>50° hydrophob <50° hydrophil), listed as polymorph poly-D): hydrophilic
Contact angle ([1]; 0 sec): 55.7 and 78.1 and 53.3
Contact angle ([1]; 10 sec): 27.7 and 33.4 and 28.2
Contact angle ([1]; 20 sec): 16.1 and 21.7 and 22.9
Contact angle ([1]; 30 sec): 20.6
Contact angle ([1]; 60 sec): 15.2
food effect [2]: significant negative food effect
solid form after equilibration (XRPD) ([3]; MeOH, 25° C./4 days): No change
solid form after equilibration (XRPD) ([3]; MeOH, 50° C./3 days): No change
solid form after equilibration (XRPD) ([3]; MeOH/water 1:1 v/v, 25° C./4 days): No change
solid form after equilibration (XRPD) ([3]; MeOH/water 1:1 v/v, 50° C./3 days): No change
solid form after equilibration (XRPD) ([3]; MeOH/water 1:2 v/v, 25° C./4 days): No change
solid form after equilibration (XRPD) ([3]; MeOH/water 1:2 v/v, 50° C./3 days): No change
solid form after equilibration (XRPD) ([3]; MeOH/water 2:1 v/v, 25° C./4 days): No change
solid form after equilibration (XRPD) ([3]; MeOH/water 2:1 v/v, 50° C./3 days): No change
solid form after equilibration (XRPD) ([3]; water, 25° C./4 days): No change
solid form after equilibration (XRPD) ([3]; water, 50° C./3 days): No change
AUC (bioavailability) [4]: 35227 ng·h/mL
Saturation solubility ([5]; FaSSIF pH 6.5-1w, mean N = 2): 166.50 µg/mL
final pH measured of the supernatant ([5]; FaSSIF pH 6.5-1w): 7.00
Saturation solubility ([5]; FeSSIF pH 5.0-1w, mean N = 2): 6.94 µg/mL
final pH measured of the supernatant ([5]; FeSSIF pH 5.0-1w): 5.17
Saturation solubility ([5]; Na Phosphate pH 6.8, mean N = 2): 94.55 µg/mL
final pH measured of the supernatant ([5]; Na Phosphate pH 6.8): 7.08
Saturation solubility ([5]; Na-Acetate pH 4.5, mean N = 2): 0.86 µg/mL
final pH measured of the supernatant ([5]; Na-Acetate pH 4.5): 4.82
Saturation solubility ([5]; SGF pH 2.1, mean N = 2): 46.10 µg/mL
final pH measured of the supernatant ([5]; SGF pH 2.1): 6.34

Source: patent US8987285B2, “Pharmaceutical compositions, dosage forms and new forms of the compound of formula (I), and methods of use thereof” (Portola Pharmaceuticals, Inc., priority 2010, dated 2015)
